Test results as given in patent US9120749B2, “Quinoline derivatives and MELK inhibitors containing the same” (ONCOTHERAPY SCIENCE, INC., priority 2010, dated 2015).
Counter-ions that a name gives are not always drawn.

Columns and labels:
A549 cells = experiment: Cell-based assay: anti-proliferative activity, Cell Counting Kit-8, 72 hours (A549); conditions: Homo sapiens, A549, 72 h, 72 hours
In short: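 A549 cells seeded in 96-well plates and exposed to candidate inhibitors for 72 hours. Growth measured with Cell Counting Kit-8; IC50 values calculated from the dose response.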

22Rv1 cells = experiment: Cell-based assay: anti-proliferative activity, Cell Counting Kit-8, 72 hours (22Rv1); conditions: Homo sapiens
MELK = MELK (Homo sapiens, UniProt Q14680); experiment: Kinase assay: MELK activity, phosphorylation of FITC-labeled histone H3 peptide measured by IMAP fluorescence polarization; format: biochemical; conditions: MELK kinase assay, IMAP fluorescence polarization, 50 micro-M ATP; read-out: IC50 (μM) (kinase assay)
Chain of MELK (Q14680 whole entry, looked up): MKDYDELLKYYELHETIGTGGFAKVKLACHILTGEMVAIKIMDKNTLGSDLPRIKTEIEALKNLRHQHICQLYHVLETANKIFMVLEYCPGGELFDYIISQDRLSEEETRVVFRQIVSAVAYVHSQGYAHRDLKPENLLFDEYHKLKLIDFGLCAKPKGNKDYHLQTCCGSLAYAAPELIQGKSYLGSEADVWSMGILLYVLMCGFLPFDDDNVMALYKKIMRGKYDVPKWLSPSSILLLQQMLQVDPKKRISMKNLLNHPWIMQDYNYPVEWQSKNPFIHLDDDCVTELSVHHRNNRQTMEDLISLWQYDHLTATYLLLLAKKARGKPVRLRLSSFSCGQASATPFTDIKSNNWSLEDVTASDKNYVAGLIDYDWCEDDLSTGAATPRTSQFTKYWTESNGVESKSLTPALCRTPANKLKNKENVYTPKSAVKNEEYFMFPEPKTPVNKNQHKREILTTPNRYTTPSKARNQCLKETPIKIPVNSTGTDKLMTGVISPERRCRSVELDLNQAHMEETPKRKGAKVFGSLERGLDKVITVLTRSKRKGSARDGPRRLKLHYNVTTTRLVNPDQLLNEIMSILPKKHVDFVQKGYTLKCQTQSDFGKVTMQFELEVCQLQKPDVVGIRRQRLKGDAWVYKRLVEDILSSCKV
In short: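 FP readout: FITC-histone H3 peptide phosphorylation, read 0.5 h (RT) after stopping with 3x volume of IMAP progressive binding solution. Final DMSO 1%.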

HT-1197 cells = experiment: Cell-based assay: anti-proliferative activity, Cell Counting Kit-8, 72 hours (HT-1197, negative control without MELK expression); conditions: Homo sapiens, HT1197, 72 h, HT1197 cells (negative control), 72 hours
In short: (§1)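 Cellular growth is read by CCK-8 colorimetric kit 72 h after inhibitor addition to seeded cells, and IC50 values are derived from the resulting data; MELK protein levels in these lines are checked beforehand by immunoblotting whole crude lysate.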

DU4475 cells = experiment: Cell-based assay: anti-proliferative activity, Cell Counting Kit-8, 72 hours (DU4475); conditions: Homo sapiens, DU-4475
T47D cells = experiment: Cell-based assay: anti-proliferative activity, Cell Counting Kit-8, 72 hours (T47D); conditions: Homo sapiens, T47D, 72 h
In short: as §1

Row | Structure (SMILES) | IC50 (A549 cells) | IC50 (22Rv1 cells) | IC50 (MELK) | IC50 (HT-1197 cells) | IC50 (DU4475 cells) | IC50 (T47D cells)
1 | COc1cc(-c2ccc3ncc(C(=O)C4CCCC4)c(N[C@H]4CC[C@H](CN(C)C)CC4)c3c2)cc(Cl)c1O [Example 916, (6-(3-chloro-4-hydroxy-5-methoxy-phenyl)-4-((1R,4R)-4-((dimethyl-amino)methyl)cyclohexyl)amino) quinolin-3-yl)(cyclopentyl) methanone hydrochloride] | 1.1 µM | 1.5 µM | 0.0048 µM | 3.1 µM | 1 µM | 1.2 µM
2 | CC(=O)c1cnc2ccc(-c3cc(Cl)c(O)c(Cl)c3)cc2c1Nc1cc(CCN2CCCC2)cnc1C [Example 897, 1-(6-(3,5-dichloro-4-hydroxyphenyl)-4-((2-methyl-5-(2-(pyrrolidin-1-yl)ethyl)pyridin-3-yl)amino)quinolin-3-yl)ethanone] | 8.5 µM | 11 µM | 0.021 µM | 71 µM | 8.8 µM | 4.5 µM
3 | CCC(=O)c1cnc2ccc(-c3cc(Cl)c(O)c(Cl)c3)cc2c1Nc1ccc(N2CCC(N(C)C)C2)nc1 (stereo not drawn) [Example 863, 1-(6-(3,5-dichloro-4-hydroxyphenyl)-4-((6-(3-(dimethylamino)pyrrolidin-1-yl)pyridin-3-yl)amino)quinolin-3-yl)propan-1-one] | 0.5 µM | 0.59 µM | 0.0039 µM | 14 µM | 0.31 µM | 0.44 µM
4 | CC(=O)c1cnc2ccc(-c3cc(Cl)c(O)c(Cl)c3)cc2c1N[C@H]1CC[C@H](C(=O)NCCN(C)C)CC1 [Example 892, (1r,4r)-4-((3-acetyl-6-(3,5-dichloro-4-hydroxyphenyl)quinolin-4-yl)amino)-N-(2-(dimethylamino)ethyl)cyclo-hexanecarboxamide hydrochloride] | 6.3 µM | 1.1 µM | 0.0023 µM | 100 µM | 0.4 µM | 0.59 µM
5 | CC(=O)c1cnc2cc(F)c(-c3cc(F)c(O)c(Cl)c3)cc2c1N[C@H]1CC[C@H](CN2CCCC2)CC1 [Example 925, 1-(6-(3-chloro-5-fluoro-4-hydroxy-phenyl)-7-fluoro-4-((1R,4R)-4-(pyrrolidin-1-ylmethyl)cyclohexyl)amino)quinolin-3-yl)ethanone hydrochloride] | 0.38 µM | 0.27 µM | 0.019 µM | 1.5 µM | 0.27 µM | 0.52 µM
6 | O=C(c1cnc2ccc(-c3cc(F)c(O)c(Cl)c3)cc2c1Nc1cncc(CCN2CCCC2)c1)C1CC1 [Example 882, (6-(3-chloro-5-fluoro-4-hydroxyphenyl)-4-((5-(2-(pyrrolidin-1-yl)ethyl)pyridin-3-yl)amino)quinolin-3-yl)(cyclopropyl)methanone] | 0.27 µM | 3.1 µM | 0.019 µM | 100 µM | 0.15 µM | 100 µM
7 | CS(=O)(=O)c1cnc2ccc(-c3cc(F)c(O)c(Cl)c3)cc2c1N[C@H]1CC[C@H](CN2CCCC2)CC1 [Example 891, 2-chloro-6-fluoro-4-(3-(methylsulfonyl)-4-((1R,4R)-4-(pyrrolidin-1-ylmethyl)cyclohexyl)amino)quinolin-6-yl)phenol hydrochloride] | 1.3 µM | 0.92 µM | 0.0095 µM | 2.4 µM | 0.46 µM | 0.73 µM
8 | CN1CCC(n2cc(Nc3c(C(=O)C(C)(C)C)cnc4ccc(-c5cc(F)c(O)c(Cl)c5)cc34)cn2)CC1 [Example 930, 1-(6-(3-chloro-5-fluoro-4-hydroxy-phenyl)-4-((1-(1-methylpiperidin-4-yl)-1H-pyrazol-4-yl)amino)quinolin-3-yl)-2,2-dimethylpropan-1-one hydrochloride] | 4.4 µM | 2.5 µM | 0.017 µM | 14 µM | 1.3 µM | 1.7 µM
9 | COc1cc(-c2cc3c(N[C@H]4CC[C@H](CN5CCCC5)CC4)c(C(C)=O)cnc3cc2F)cc(Cl)c1O [Example 926, 1-(6-(3-chloro-4-hydroxy-5-methoxy-phenyl)-7-fluoro-4-((1R,4R)-4-(pyrrolidin-1-ylmethyl)cyclohexyl)amino)quinolin-3-yl)ethanone hydrochloride] | 0.61 µM | 0.69 µM | 0.0079 µM | 5 µM | 0.55 µM | 2.7 µM
10 | CC(=O)c1cnc2ccc(-c3cc(Cl)c(O)c(Cl)c3)cc2c1N[C@H]1CC[C@H](NC(=O)C2CCCN2C)CC1 (stereo partly drawn) [Example 875, N-(1R,4R)-4-((3-acetyl-6-(3,5-dichloro-4-hydroxyphenyl)quinolin-4-yl)amino)cyclohexyl)-1-methylpyrrolidine-2-carboxamide hydrochloride] | 0.24 µM | 0.29 µM | 0.0035 µM | 4.4 µM | 0.21 µM | 0.14 µM
11 | CC(=O)c1cnc2ccc(-c3cc(Cl)c(O)c(Cl)c3)cc2c1Nc1cnc(C)c(CCN2CCCC2)c1 [Example 871, 1-(6-(3,5-dichloro-4-hydroxyphenyl)-4-((6-methyl-5-(2-(pyrrolidin-1-yl)ethyl)pyridin-3-yl)amino)quinolin-3-yl)ethanone] | 0.4 µM | 0.82 µM | 0.0028 µM | 25 µM | 0.33 µM | 1.8 µM
12 | CC(=O)c1cnc2ccc(-c3ccc4nc[nH]c4c3)cc2c1Nc1ccc(N2CCN(C)CC2)nc1 [Example 901, 1-(6-(1H-benzo[d]imidazol-6-yl)-4-((6-(4-methylpiperazin-1-yl)pyridin-3-yl)amino)quinolin-3-yl)ethanone hydrochloride] | 2.3 µM | 2.1 µM | 0.1 µM | 9.1 µM | 9.5 µM | 1.2 µM
13 | CC(=O)c1cnc2ccc(-c3cc(Cl)c(O)c(Cl)c3)cc2c1N[C@H]1CC[C@H](NC(=O)[C@H](C)N)CC1 [Example 886] | 0.64 µM | 0.088 µM | 0.00066 µM | 11 µM | 0.016 µM | 0.045 µM
14 | CC(=O)c1cnc2ccc(-c3cc(F)c(O)c(Cl)c3)cc2c1N[C@H]1CC[C@H](NC(=O)CN(C)C)CC1 [Example 876] | 0.16 µM | 0.14 µM | 0.0088 µM | 1.5 µM | 0.092 µM | 0.033 µM
15 | CN1CCC(n2cc(Nc3c(C(=O)C(C)(C)C)cnc4ccc(-c5cc(Cl)c(O)c(Cl)c5)cc34)cn2)CC1 [Example 931, 1-(6-(3,5-dichloro-4-hydroxyphenyl)-4-((1-(1-methylpiperidin-4-yl)-1H-pyrazol-4-yl)amino)quinolin-3-yl)-2,2-dimethylpropan-1-one hydrochloride] | 1.8 µM | 2.1 µM | 0.0062 µM | 100 µM | 1.5 µM | 1.4 µM
16 | CN(C)C1CCN(c2ccc(Nc3c(S(C)(=O)=O)cnc4ccc(-c5cc(F)c(O)c(Cl)c5)cc34)cn2)C1 (stereo not drawn) [Example 889, 2-chloro-4-(4-((6-(3-(dimethylamino)pyrrolidin-1-yl)pyridin-3-yl)amino)-3-(methylsulfonyl)quinolin-6-yl)-6-fluorophenol hydrochloride] | 2.5 µM | 1.8 µM | 0.0092 µM | 12 µM | 1.2 µM | 1.5 µM
17 | CC(=O)c1cnc2ccc(-c3cn[nH]c3)cc2c1N[C@H]1CC[C@H](CN(C)C)CC1 [Example 912, 1-(4-((1R,4R)-4-((dimethylamino)methyl)cyclohexyl)amino)-6-(1H-pyrazol-4-yl)quinolin-3-yl)ethanone hydrochloride] | 1.3 µM | 1.7 µM | 0.074 µM | 3 µM | 1.4 µM | 4.2 µM
18 | CC(=O)c1cnc2ccc(-c3cc(Cl)c(O)c(Cl)c3)cc2c1N[C@H]1CC[C@H](NC(=O)[C@@H]2CCCN2)CC1 [Example 920, (S)—N-((1R,4S)-4-(3-acetyl-6-(3,5-dichloro-4-hydroxyphenyl)quinolin-4-ylamino)cyclohexyl)pyrrolidine-2-carboxamide] | 0.86 µM | 0.34 µM | 0.0019 µM | 6.5 µM | 0.073 µM | 0.1 µM
19 | CC(=O)c1cnc2ccc(-c3ccc(O)cc3)cc2c1N[C@H]1CC[C@H](CN(C)C)CC1 [Example 935, 1-(4-(1R,4R)-4-((dimethylamino)methyl)cyclohexylamino)-6-(4-hydroxyphenyl)quinolin-3-yl) ethanone dihydrochloride] | 0.86 µM | 0.53 µM | 0.08 µM | 4.3 µM | 1.5 µM | 1.6 µM
20 | COc1cc(-c2ccc3ncc(C(=O)C4CCCC4)c(Nc4cccc(CCN5CCCC5)c4)c3c2)cc(Cl)c1O [Example 924, (6-(3-chloro-4-hydroxy-5-methoxy-phenyl)-4-((3-(2-(pyrrolidin-1-yl)ethyl)phenyl)amino)quinolin-3-yl) (cyclopentyl)methanone hydrochloride] | 3.7 µM | 3 µM | 0.018 µM | 3.3 µM | 1.8 µM | 3.2 µM
